According to US11497749B2, “Mitoflavoscins: targeting flavin-containing enzymes eliminates cancer stem cells (CSCS) by inhibiting mitochondrial respiration” (LUNELLA BIOTECH, INC., priority 2017, dated 2022):
Like-named read-outs stand apart in the source and are kept apart here.

What was measured:
MCF7 cells [1] = settings: various concentrations, 1, 3 or 5 days, normalized to vehicle
Method: To confirm that the observed increase in ECAR corresponded to L-lactate production, L-lactate levels were measured directly using the ISCUS^flex Microdialysis Analyser (M Dialysis Inc., MA, USA). Culture media were collected, centrifuged and analysed with the ISCUS^flex Microdialysis Analyzer after treatment of MCF7 cells with various concentrations of DPI for 1, 3 or 5 days. Calibration of the instrument was performed by samples provided by the manufacturer. Then L-lactate levels were measured and normalized to samples taken from MCF7 cells treated with vehicle only.

MCF7 cells [2] = system: MCF7 cells
Source text: (§1) A number of methods may be used for functional validation, including, for example, metabolic flux analysis, mammosphere assays, viability assays, and antibiotic (anti-bacterial and/or anti-fungal) activity. The inventors determined real-time oxygen consumption rates (OCR) and extracellular acidification rates (ECAR) in MCF7 cells using the Seahorse Extracellular Flux (XF96) analyzer (Seahorse Bioscience, Mass., USA). Briefly, MCF7 cells were maintained in DMEM supplemented with 10% FBS (fetal bovine serum), 2 mM GlutaMAX, and 1% Pen-Strep. 8,000 cells per well were seeded into XF96-well cell culture plates, and incubated overnight at 37° C. in a 5% CO2 humidified atmosphere. The next day, cells were washed in pre-warmed XF assay media (for OCR measurement, XF assay media was supplemented with 10 mM glucose, 1 mM Pyruvate and adjusted at pH 7.4). Cells were then maintained in 175 μL/well of XF assay media at 37° C., in a non-CO2 incubator for 1 hour. During incubation, 25 μL of 80 mM glucose, 9 μM oligomycin, 1M 2-deoxyglucose (for ECAR measurement) and 25 μL of 10 μM oligomycin, 9 μM FCCP, 10 μM rotenone, 10 μM antimycin A (for OCR measurement) in XF assay media was loaded into the injection ports of the XFe-96 sensor cartridge. During the experiment, the instrument injected these inhibitors into the wells at a given time point, while ECAR/OCR was measured continuously. ECAR and OCR measurements were normalized by protein content (Sulphorhodamine B assay). Data sets were analyzed by XFe-96 software, using one-way ANOVA and Student's t-test calculations. All experiments were performed in triplicate.
(§2) Given DPI's high potency, inventors assessed its ability to rapidly affect cell metabolism.

MCF7 cells [3] = settings: 24 hours
Method: Inventors hypothesized that possible mechanism by which DPI inhibits CSC propagation is by inducing mitochondrial reactive oxygen species (ROS) production. To test this hypothesis, inventors determined the effects of DPI on mitochondrial ROS production, over the range of 5 to 50 nM. Briefly, production of superoxide by mitochondria was measured by the MitoSOX™ Red mitochondrial superoxide indicator (ThermoFisher Sci., M36008). 3×10^5 MCF7 cells/well were plated in 6-well plates in complete media supplemented with 10% heat-inactivated FBS. The next day, cells were treated with DPI (5, 50 nM) or Rotenone (0.5 μM) for 24 hours. Vehicle alone (DMSO) for control cells were processed in parallel. At least 30,000 events were recorded by FACS using Fortessa (BD Bioscience). Three biological replicates (repeats) were analyzed in independent experiments.

MCF7 cells [4] = settings: 500 nM DPI, 72 hours
Method: Assays were performed according to the manufacturer's protocol.

MCF7 cells [5] = assay: cells; settings: Homo sapiens, MCF7, 120 h, read-out: IC-50, reduction of CD44+/CD24- cell population
Method: Inventors examined specific cell surface markers, namely fluorescent antibody probes directed against CD44 and CD24. The CD44+/CD24-cell population represents a CSC-enriched fraction. 1×10^5 MCF7 cells were plated in 6-well plates in complete media supplemented with 10% heat-inactivated FBS. […] Vehicle alone (DMSO) control cells were processed in parallel. Briefly, 30,000-50,000 live cells, as identified by 7-AAD dye staining, were analyzed for CD24/CD44 expression. Inventors used CD24 (IOTest CD24-PE, Beckman Coulter) and CD44 (APC mouse Anti-Human CD44, BD Pharmingen) antibodies for fluorescence activated cell sorting (FACS) analysis, using the BD LSR Fortessa (BD Bioscience). […] One-way ANOVA was used with Bonferroi's multiple comparisons test.

MCF7 cells [6] = settings: 10 nM, 1 month culture
hTERT-BJ1 cells = settings: five days of incubation, up to 100 nM
Method: (§3) The inventors used a Sulphorhodamine (SRB) assay, which is based on the measurement of cellular protein content. After treatment for five days in 96-well plates, cells were fixed with 10% trichloroacetic acid (TCA) for 1 hour in the cold room, and were dried overnight at room temperature. Then, cells were incubated with SRB for 15 min, washed twice with 1% acetic acid, and air dried for at least 1 hour. Finally, the protein-bound dye was dissolved in a 10 mM Tris, pH 8.8 solution and read using the plate reader at 540-nm.

MCF7 cells [7] = settings: five days of treatment, concentration as high as 33 nM
Method: as §3

C. elegans = settings: during response to oxidative stress; cited from earlier work
MCF7 cells [8] = assay: cells; settings: Homo sapiens
Method: Cells were grown for 5 days and maintained in a humidified incubator at 37° C. at an atmospheric pressure in 5% (v/v) carbon dioxide/air.

MCF7 cells [9] = assay: cells
Source text: as §1
It should be appreciated that numerous methods are known for functional validation, and that persons of skill in the art may select one or more depending on the validation needs (e.g., other assays that measure or approximate mitochondrial function).
as §2
To assess the reversibility of DPI's effects, MCF7 cells were first subjected to DPI treatment for 24 hours. Then, DPI was removed (“wash-out”) and the cells were cultured for an additional 24 hours, to allow recovery.
The inventors also examined the effects of long-term treatment with DPI on cells.

Structure (SMILES): c1ccc2c(c1)[I+]c1ccccc1-2 [DPI, Diphenyleneiodonium chloride]
- L-lactate production (MCF7 cells [1]): nearly doubling the amount of lactate produced
- effect on ECAR (MCF7 cells [2]; 2.5 nM, 24 hours of treatment): little or no effect
- increase of glycolysis (MCF7 cells [2]; 10 nM, 24 hours of treatment): ~2 fold
- increase of glycolysis (MCF7 cells [2]; one-hour treatment, 5 to 100 nM): effectively doubled
- mitochondrial ROS production (MCF7 cells [3]; 5 nM, relative to vehicle): failed to induce any detectable mitochondrial ROS production
- mitochondrial ROS production (MCF7 cells [3]; 50 nM, versus positive control Rotenone): induced the same amount of mitochondrial ROS as 500 nM Rotenone
- cell death (number of attached cells by DNA content) (MCF7 cells [4]): did not significantly induce any cell death
- reduction of ATP levels (MCF7 cells [4]): > 80%
- IC50 (MCF7 cells [5]): 10 nM
- morphology and density of the cells (MCF7 cells [6]): remains unchanged
- toxic effects / cell viability in normal fibroblasts (hTERT-BJ1) (hTERT-BJ1 cells): little or no toxic effects
- toxicity / cell viability in MCF7 cells (MCF7 cells [7]): little or no toxicity
- accumulation of lipofuscin (aging-associated marker) (C. elegans): prevents the accumulation of lipofuscin
- IC50 (MCF7 cells [8]; MCF7, 120 h, read-out: IC-50, CSC propagation (mammosphere formation)): 3.23 nM
- inhibition at 0.005 µM (MCF7 cells [8]; MCF7, read-out: inhibition of mammosphere formation): > 50%
- effect on OCR (MCF7 cells [9]; 2.5 nM, 24-hour treatment): little or no effect
- reduction of basal respiration (MCF7 cells [9]; 5 nM, 24-hour treatment): ~50%
- decrease of basal respiration rate (MCF7 cells [9]; 10 nM, 24-hour treatment): ~85%
- reduction in ATP production (ATP-linked respiration) (MCF7 cells [9]; 10 nM, 24-hour treatment): > 90%
- inhibition of mitochondrial respiration after long-term treatment (MCF7 cells [9]; 1 month culture with 10, 25 and 50 nM): near complete inhibition of respiration
- IC50 (MCF7 cells [9]; Homo sapiens, MCF7, 1 h, read-out: IC-50, inhibition of basal respiration): 50 nM
